“Also recorded” adds a separate entry of the source.
Columns and labels:
Format in all cases: in vivo, rat
[1] = system: MADB106 cells; assay: MADB106 lung metastasis / lung tumor retention; conditions: naloxone 1 mg/kg every 12 hours, 3 times
Procedure: A method for lung metastasis was adapted using MADB106 breast cancer cells, a NK-sensitive cell line widely used for lung metastasis study. Animals were anesthetized, and 100,000/0.2 ml/rat of MADB106 cells suspended in media were inoculated into jugular vein. After 4˜6 weeks, 70˜80% of inoculated animals developed tumor at the position of lung and/or neck, where the tumor cells were inoculated into the jugular vein.
30 female Fischer rats were implanted with control, cAMP (10 μM) or cAMP (5 μM)+PACAP (5 μM) nanospheres into 3rd ventricle. 2 weeks later, half of the animals were randomly assigned to treatment with Naloxone (1 mg/kg body every 12 hours) for 3 times. After the second injection of Naloxone, animals were anesthetized and inoculated with 100,000/0.2 ml/rat MADB106 cells. 2 months later, animals were sacrificed, and lungs were fixed and sectioned for histology diagnosis.
MADB106 cells, a Fischer 344 rat mammary adenocarcinoma cell line maintained in DMEM containing 10% fetal calf serum, was used. Female Fischer-344 rats were transplanted with BEP cell transplants or control cell transplants at 50 days of age. After about 2 weeks, these PVN cell-transplanted rats were inoculated with MADB106 tumor cells (100,000 cells/0.2 mL/rat) into jugular vein under sodium Nembutal solution (50 mg/kg) anesthesia. […]

[2] = Plasma corticosterone after nanosphere implantation; conditions: naloxone 1 mg/kg i.p., 12 hours
Procedure: 2 weeks later, half of the animals were i.p. injected with naloxone (1 mg/kg body weight), which is aμ-opioid receptor antagonist, specifically blocking the effect of β-EP. 12 hours later, animals were anesthetized with Nembutal, and blood was drawn from jugular vein. Plasma corticosterone level was measured with ELISA.
2 months later, animals were anesthetized, and 1 ml of blood was drawn from jugular vein.

[3] = system: MADB106 cells; assay: Pharmacologic modification of autonomic influence on immune system and lung metastasis
Procedure: 48 β-EP implanted (SC) male Fischer rats and 48 control (C) male Fischer rats were divided into 8 groups, treated with saline, Naloxone (10 mg/kg body weight), Metaproterenol (MP, 0.8 mg/kg body weight), or Methyllycaconitine (MLA, 2.5 mg/kg body weight), respectively. Animals were treated with drugs for 8 days. In the second day of drug injection, animals were inoculated with MADB106 cells (100,000/0.2 ml/rat). 24 hours after tumor cell inoculation, blood was collected by orbital puncture. Plasma was collected, and PBMCs were separated for migration assay and NK cytolytic assay. 7 days after tumor inoculation, blood was taken again by orbital puncture. Plasma was collected, and PBMCs were separated for migration assay and T cell cytolytic assay. After 6 weeks, animals were sacrificed, and brains, spleens and blood were frozen. Lungs were fixed in formalin and processed to H&E staining. […] However, 7 days after tumor inoculation, there isn't a clear pattern of T cell cytolytic activity and macrophage migration activity between groups (FIGS. 30B and 30D).
It was hypothesized that the beneficial effect of BEP neuron transplants on immune function is regulated through autonomic nervous system, and that central BEP modulate peripheral immune function by inhibiting the sympathetic activity and activating the parasympathetic activity. Metaproterenol (MET) is an agonist for β-receptors, which are a class of G protein-coupled receptors that are targets of the catecholamines, especially norepinephrine and epinephrine (Dokur et al. (2004) J Neuroimmunol 5:148-57; Page et al. (2008) J Neuroimmunol 193:113-9). Methyllycaconitine (MLA) is a selective antagonist of α7 nicotine acetylcholine receptor (α7 nAChR; Wu et al. (2011) Clin Cancer Res 17:3533-41). By injecting MET and MLA i.p., the stimulation of sympathetic nerves and inhibition of parasympathetic nerves was mimicked. Naloxone, an opiate receptor antagonist, was used to test whether BEP neuronal effects is acted via opiodergic receptor (Boyadjieva et al. (2006) Alcohol Clin Exp Res 30:1761-7). Forty-eight BEP neuron-transplanted Fischer rats and 48 control rats were divided into 8 groups and treated with saline, naloxone (10 mg/kg body weight), MET (0.8 mg/kg body weight), or MLA (2.5 mg/kg body weight) for 8 days (the doses used for these drugs are recognized as effective biological doses). A day after the first injection of these agents, animals were inoculated with MADB106 cells (100,000/0.2 mL/rat). Twenty-four hours after tumor cell inoculation, blood was collected by orbital puncture. Plasma was collected, and peripheral blood mononuclear cells (PBMC) were separated for migration assay and NK cytolytic assay. These animals continued receiving the blocker treatments for 7 days. After 4 weeks they were sacrificed, their lungs were fixed in formalin and processed to H&E staining for determination of cancer pathology. Brain tissues were processed for verification of the site and viability of BEP cell transplantation.

[4] = 24 hours after MADB106 inoculation, naloxone 10, MP/MET 0.8, MLA 2.5 mg/kg or saline

C=CCN1CC[C@]23c4c5ccc(O)c4O[C@H]2C(=O)CC[C@@]3(O)[C@H]1C5 [naloxone]
effect on nanosphere-reduced lung tumor retention [1]: reversed the effect of nanosphere | effect on nanosphere-lowered plasma corticosterone [2]: blocked the effect of nanospheres | PBMC NK cell activity [3, 4]: moderate or strong inhibitory effect | macrophage migration activity [3, 4]: moderate or strong inhibitory effect | effect on β-EP elimination of tumor cell lung retention ([3]; β-EP transplanted Fischer rats, naloxone 10, MP/MET 0.8, MLA 2.5 mg/kg for 8 days): stopped the effect of β-EP; also recorded: prevented, at various degrees
